In assay [1] the test system is isolated rings of the saphenous artery of rabbits. Kind of assay: Vessel-relaxing action in vitro, phenylephrin-induced contractions of isolated saphenous artery rings. Conditions: Oryctolagus cuniculus; contraction induced by 3×10^−8 g of phenylephrin/ml; concentration reducing control contraction by 50%. On the set-up: species or system rabbit. As for the experimental part: (§1) The inhibition of the enzyme is investigated in an in vitro assay with recombinant Rho kinase II. The vessel-relaxing action is determined using phenylephrin-induced contractions of isolated rings of the saphenous artery of rabbits.
Vessel-Relaxing Action In Vitro
Individual 3-mm-wide rings of the isolated saphenous artery of rabbits are introduced into 5 ml organ baths with Krebs-Henseleit solution (37° C., gassed with carbogen). The vessel tone is monitored isometrically and registered. Contractions are induced by addition of 3×10^−8 g of phenylephrin/ml, which is washed out again after 4 min. After a number of control cycles, the rings are pre-incubated with the substance to be examined, with the dosage being increased for each further cycle, and the subsequent contraction is compared to the intensity of the last control contraction.

Assay [2] deals with T1, recombinant Rho kinase II (ROKα) (Homo sapiens, UniProt O75116).
T1 construct: purchased Upstate Biotechnology
T1 sequence (O75116 whole entry): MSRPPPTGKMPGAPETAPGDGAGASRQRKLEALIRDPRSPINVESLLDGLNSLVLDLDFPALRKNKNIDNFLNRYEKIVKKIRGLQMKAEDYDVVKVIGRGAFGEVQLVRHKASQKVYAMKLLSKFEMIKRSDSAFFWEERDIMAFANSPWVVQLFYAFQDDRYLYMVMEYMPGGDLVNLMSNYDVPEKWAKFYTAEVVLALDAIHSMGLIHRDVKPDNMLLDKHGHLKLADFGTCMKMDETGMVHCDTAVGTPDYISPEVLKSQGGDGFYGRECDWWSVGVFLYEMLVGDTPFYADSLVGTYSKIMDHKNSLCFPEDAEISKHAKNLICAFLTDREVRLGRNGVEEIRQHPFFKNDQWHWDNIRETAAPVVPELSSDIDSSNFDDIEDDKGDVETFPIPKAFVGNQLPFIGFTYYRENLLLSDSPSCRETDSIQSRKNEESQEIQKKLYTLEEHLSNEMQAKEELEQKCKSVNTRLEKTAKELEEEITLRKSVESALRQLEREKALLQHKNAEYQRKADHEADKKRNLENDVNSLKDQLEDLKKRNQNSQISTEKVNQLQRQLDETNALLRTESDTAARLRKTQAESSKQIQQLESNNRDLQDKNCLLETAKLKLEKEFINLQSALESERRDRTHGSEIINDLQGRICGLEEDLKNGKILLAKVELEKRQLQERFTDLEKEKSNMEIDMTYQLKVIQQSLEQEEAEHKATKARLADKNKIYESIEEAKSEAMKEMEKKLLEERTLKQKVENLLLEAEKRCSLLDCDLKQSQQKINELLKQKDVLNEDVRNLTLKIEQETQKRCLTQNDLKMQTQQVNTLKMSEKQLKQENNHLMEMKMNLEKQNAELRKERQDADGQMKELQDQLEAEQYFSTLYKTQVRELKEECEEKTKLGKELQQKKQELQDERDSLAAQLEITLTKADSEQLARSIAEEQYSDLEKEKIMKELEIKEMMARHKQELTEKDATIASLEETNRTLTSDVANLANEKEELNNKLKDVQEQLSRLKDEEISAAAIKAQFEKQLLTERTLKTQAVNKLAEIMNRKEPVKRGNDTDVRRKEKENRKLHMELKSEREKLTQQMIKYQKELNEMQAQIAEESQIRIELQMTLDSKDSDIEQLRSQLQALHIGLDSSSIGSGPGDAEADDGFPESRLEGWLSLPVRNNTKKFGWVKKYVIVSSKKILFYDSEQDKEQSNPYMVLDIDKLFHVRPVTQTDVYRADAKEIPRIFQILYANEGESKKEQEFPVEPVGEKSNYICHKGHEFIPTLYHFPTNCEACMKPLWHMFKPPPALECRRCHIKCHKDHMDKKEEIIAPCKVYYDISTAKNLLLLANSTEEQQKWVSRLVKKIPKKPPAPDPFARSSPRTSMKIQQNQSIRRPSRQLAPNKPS
Briefly: Inhibition of recombinant Rho kinase II (ROKα), 33P uptake into S6 substrate peptide. Conditions: 33P-ATP, S6 phosphate-acceptor peptide, 20 min at 37° C., vs solvent control. The format is biochemical. As for the experimental part: as §1
Inhibition of Recombinant Rho Kinase II (ROKα)
The activity of Rho kinase is determined by the uptake of ^33P phosphate into a substrate peptide. To this end, commercially available Rho kinase II (Upstate Biotechnology) is pre-incubated at 37° C. in the presence of the S6 phosphate-acceptor peptide with the test substances or a solvent control for 10 min. The kinase reaction is then started by addition of ^33P-labelled ATP. After 20 min at 37° C., the reaction is stopped by addition of H3PO4. Aliquots are pipetted onto filters and the filters are washed and then covered with scintillator. The radioactivity of the ^33P-labelled peptides bound to the filter is measured in a Micro-Beta counter.

The structures appear in SMILES notation.

The values below come from US7737153B2, “Heteroaryloxy-substituted phenylaminopyrimidines as rho-kinase inhibitors” (Bayer Schering Pharma Aktiengesellschaft, priority 2002, dated 2010).

Regarding `Cc1n[nH]c2cccc(Oc3ccc(Nc4cc(-c5ccncc5)nc(N)n4)cc3F)c12` [Example 1, N-[2-Amino-6-(4-pyridinyl)-4-pyrimidinyl]-N-{3-fluoro-4-[(3-methyl-1H-indazol-4-yl)oxy]phenyl}amine], the IC50 (commonly the midpoint of a concentration-inhibition curve) in assay [1] came out at 6800 nM.
On to `Nc1nc(Nc2ccc(Oc3ccc4[nH]ncc4c3)c(F)c2)cc(-c2ccncc2)n1` [Example 5, N-[2-Amino-6-(4-pyridinyl)-4-pyrimidinyl]-N-[3-fluoro-4-(1H-indazol-5-yloxy)-phenyl]amine], for which the 50% inhibitory concentration (IC50) in assay [2] came out at 20 nM; in assay [1], 1020 nM.
For `Nc1nc(Nc2ccc(Oc3ccc4[nH]ncc4c3)c(Cl)c2)cc(-c2ccncc2)n1` [Example 6], in that order: 30 nM and 4330 nM.
Regarding `Nc1nc(Nc2ccc(Oc3ccc4cn[nH]c4c3)c(F)c2)cc(-c2ccncc2)n1` [Example 7], the concentration for half-maximal inhibition (IC50) in assay [1] came out at 6700 nM.
With `Nc1nc(Nc2ccc(Oc3ccc4[nH]ncc4c3)c(F)c2)cc(N2C[C@H]3CCCN[C@H]3C2)n1` [Example 11, 6-[(4aR,7aR)-Octahydro-6H-pyrrolo[3,4-b]pyridin-6-yl]-N-4-[3-fluoro-4-(1H-indazol-5-yloxy)phenyl]-2,4-pyrimidinediamine], the results for the IC50 in assay [2] and in assay [1] were 6 nM and 350 nM, respectively.
For `Nc1nc(Nc2ccc(Oc3ccc4[nH]ncc4c3)c(F)c2)cc(N2C[C@@H]3CCCN[C@@H]3C2)n1` [Example 12], in that order: 55 nM and 2700 nM.
The matching figures for `Nc1nc(Nc2ccc(Oc3ccc4[nH]ncc4c3)c(Cl)c2)cc(N2C[C@H]3CCCN[C@H]3C2)n1` [Example 13]: 9 nM and 2000 nM.
For the molecule `Nc1nc(Nc2ccc(Oc3ccc4[nH]ncc4c3)c(Cl)c2)cc(N[C@@H]2CCCC[C@H]2N)n1` [Example 15], the IC50 in assay [2] was found to be 20 nM.
Turning to `Nc1nc(Nc2ccc(Oc3ccc4[nH]ncc4c3)c(F)c2)cc(N[C@@H]2CCCC[C@H]2N)n1` [Example 16], the IC50 in assay [2] stood at 50 nM; in assay [1], 6900 nM.
Consider `Nc1nc(Nc2ccc(Oc3ccc4[nH]ncc4c3)c(F)c2)cc(-c2ccccc2)n1` [Example 18, N-(2-Amino-6-phenyl-4-pyrimidinyl)-N-[3-fluoro-4-(1H-indazol-5-yloxy)phenyl]amine], for which the IC50 in assay [2] came to 43 nM.
Regarding `CN(CCO)CC1CCN(c2cc(Nc3ccc(Oc4ccnc5[nH]ccc45)c(F)c3)nc(N)n2)C1` (centres unmarked) [Example 68], the IC50 amounted to 1 nM in assay [2] and 260 nM in assay [1].
Molecule `CC(C)(C)NCc1cc(Nc2ccc(Oc3ccnc4[nH]ccc34)c(F)c2)nc(N)n1` [Example 116] showed an IC50 in assay [1] of 150 nM.
Same read-out and setting: the figure for `Nc1nc(CN2CCCCC2)cc(Nc2ccc(Oc3ccnc4[nH]ccc34)c(F)c2)n1` [Example 117, N^4-[3-Fluoro-4-(1H-pyrrolo[2,3-b]pyridin-4-yloxy)phenyl]-6-(piperidin-1-ylmethyl)-pyrimidine-2,4-diamine] is 80 nM.
